Laboratory results reported in patent publication US20230095520A1, “PHARMACEUTICAL COMPOSITION FOR PREVENTING OR TREATING CANCER COMPRISING AZOLE DERIVATIVES OR PHARMACEUTICALLY ACCEPTABLE SALT THEREOF” (Yungjin Pharm. Co., Ltd., priority 2020, published 2023).
pIC50: −log10 of the molar value.

Columns and labels:
[1] = target: T1, Recombinant purified human CDK7 (Homo sapiens, UniProt P50613); test: CDK7 activity inhibition, ADP-Glo kinase assay; type: biochemical; settings: ATP 90 μM, MBP substrate, 2 hours 30° C.
T1 construct: purchased ThermoFisher PV3868
T1 sequence (P50613 whole entry): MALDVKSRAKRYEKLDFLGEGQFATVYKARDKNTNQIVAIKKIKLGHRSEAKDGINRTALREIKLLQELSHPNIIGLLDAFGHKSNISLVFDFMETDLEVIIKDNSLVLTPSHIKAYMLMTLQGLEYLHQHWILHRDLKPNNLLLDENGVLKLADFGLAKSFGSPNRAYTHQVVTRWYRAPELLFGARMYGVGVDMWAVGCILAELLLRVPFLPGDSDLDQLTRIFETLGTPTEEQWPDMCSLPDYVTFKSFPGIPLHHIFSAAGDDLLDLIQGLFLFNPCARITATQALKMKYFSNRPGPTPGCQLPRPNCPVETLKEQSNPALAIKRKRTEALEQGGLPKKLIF
T1 sequence (P51946 whole entry partner): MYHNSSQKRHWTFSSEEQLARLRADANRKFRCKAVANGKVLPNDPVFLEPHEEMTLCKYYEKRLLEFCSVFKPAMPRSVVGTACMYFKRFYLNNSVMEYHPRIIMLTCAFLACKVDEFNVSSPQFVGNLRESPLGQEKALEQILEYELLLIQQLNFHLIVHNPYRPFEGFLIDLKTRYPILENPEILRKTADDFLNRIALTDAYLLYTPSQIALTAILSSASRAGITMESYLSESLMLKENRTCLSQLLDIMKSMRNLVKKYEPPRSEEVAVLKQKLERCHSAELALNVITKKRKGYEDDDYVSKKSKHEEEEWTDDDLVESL
T1 sequence (P51948 whole entry partner): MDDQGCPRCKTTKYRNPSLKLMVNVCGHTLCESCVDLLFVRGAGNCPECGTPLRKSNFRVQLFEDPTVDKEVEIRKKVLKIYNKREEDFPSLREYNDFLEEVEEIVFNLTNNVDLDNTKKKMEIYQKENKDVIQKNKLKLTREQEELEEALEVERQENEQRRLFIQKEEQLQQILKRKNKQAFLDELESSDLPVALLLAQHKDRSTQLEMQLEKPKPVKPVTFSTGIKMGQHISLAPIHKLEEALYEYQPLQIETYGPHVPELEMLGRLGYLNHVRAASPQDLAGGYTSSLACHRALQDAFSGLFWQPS
Summary of the method: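 Human recombinant CDK7 (50 ng per reaction) in 40 mM Tris-Cl pH 7.5, 20 mM MgCl2, 0.1 mg/ml BSA, 50 μM DTT, with 1% DMSO. The reaction used 90 μM ATP and 0.2 μg/μl MBP substrate for 2 h at 30 °C. ADP formed was quantified by ADP-Glo luminescence to derive inhibition.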

MDA-MB-468 cells = test: MDA-MB-468 cell proliferation inhibition (MTT); type: cell-based; settings: MDA-MB-468 proliferation
Description: MDA-MB-468 cells are one of the triple-negative breast cancer (TNBC: negative for the expression of estrogen receptor, progesterone receptor and HER2) cells known as a malignant tumor that is difficult to diagnose at an early stage and has a high metastatic capacity, and these cells are used to test inhibition of proliferation and survival of breast cancer cells.
MDA-MB-468 cells cultured in a 96-well cell culture plate were treated with the compound of the present invention and cultured for 72 hours. Thereafter, the antiproliferative effect of the compound was assayed by the MTT method using a tetrazolium salt.

A549 = test: Cancer cell proliferation GI50 (CCK-8); type: cell-based; settings: Homo sapiens, A549, lung cancer, 72 hours
Description: (§1) In this example, in order to confirm the proliferation inhibitory effect on various cancer cells, Compound 121 was tested as follows.
(§2) The cells were cultured with a culture medium shown in Table 9 below at 37° C. in a humidified condition in the presence of 5% CO2. Each cell cultured in a 96-well cell culture plate was treated with the compound of the present invention and cultured for 72 hours.

BDCM = test: Cancer cell proliferation GI50 (CCK-8); type: cell-based; settings: acute myeloid leukemia, 72 hours
Description: as §1, §2

BxPC-3 = test: Cancer cell proliferation GI50 (CCK-8); type: cell-based; settings: Homo sapiens, BxPC-3, pancreatic cancer, 72 hours
Description: as §1, §2

DAUDI = test: Cancer cell proliferation GI50 (CCK-8); type: cell-based; settings: Homo sapiens, Burkitt lymphoma, 72 hours
Description: as §1, §2

DU145 = test: Cancer cell proliferation GI50 (CCK-8); type: cell-based; settings: Homo sapiens, DU-145, DU145, prostate cancer, 72 hours
Description: as §1, §2

JURKAT = test: Cancer cell proliferation GI50 (CCK-8); type: cell-based; settings: Homo sapiens, T cell acute lymphocytic leukemia, 72 hours
Description: as §1, §2

KASUMI-2 = test: Cancer cell proliferation GI50 (CCK-8); type: cell-based; settings: KASUMI-2, B cell acute lymphocytic leukemia, 72 hours
Description: as §1, §2

KG-1 = test: Cancer cell proliferation GI50 (CCK-8); type: cell-based; settings: Homo sapiens, KG-1, acute myeloid leukemia, 72 hours
Description: as §1, §2

LNCaP = test: Cancer cell proliferation GI50 (CCK-8); type: cell-based; settings: Homo sapiens, prostate cancer, 72 hours
Description: as §1, §2

MEG-01 = test: Cancer cell proliferation GI50 (CCK-8); type: cell-based; settings: Homo sapiens, MEG-01, chronic myeloid leukemia, 72 hours
Description: as §1, §2

MOLM/AZA-1 = test: Cancer cell proliferation GI50 (CCK-8); type: cell-based; settings: MOLM/AZA-1, acute myeloid leukemia, 72 hours
Description: as §1, §2

MOLM/DEC-5 = test: Cancer cell proliferation GI50 (CCK-8); type: cell-based; settings: MOLM/DEC-5, acute myeloid leukemia, 72 hours
Description: as §1, §2

MOLT4 = test: Cancer cell proliferation GI50 (CCK-8); type: cell-based; settings: Homo sapiens, MOLT-4, MOLT4, acute lymphocytic leukemia, 72 hours
Description: as §1, §2

MV-4-11 = test: Cancer cell proliferation GI50 (CCK-8); type: cell-based; settings: Homo sapiens, MV4-11, MV-4-11, acute myeloid leukemia, 72 hours
Description: as §1, §2

NALM-20 = test: Cancer cell proliferation GI50 (CCK-8); type: cell-based; settings: NALM-20, B cell acute lymphocytic leukemia, 72 hours
Description: as §1, §2

OCI-AML2 = test: Cancer cell proliferation GI50 (CCK-8); type: cell-based; settings: Homo sapiens, OCI-AML2, acute myeloid leukemia, 72 hours
Description: as §1, §2

OVCAR-3 = test: Cancer cell proliferation GI50 (CCK-8); type: cell-based; settings: Homo sapiens, OVCAR-3, ovarian cancer, 72 hours
Description: as §1, §2

RCH-ACV = test: Cancer cell proliferation GI50 (CCK-8); type: cell-based; settings: B cell acute lymphocytic leukemia, 72 hours
Description: as §1, §2

RPMI-8226 = test: Cancer cell proliferation GI50 (CCK-8); type: cell-based; settings: Homo sapiens, RPMI-8226, multiple myeloma, 72 hours
Description: as §1, §2

SKOV-3 = test: Cancer cell proliferation GI50 (CCK-8); type: cell-based; settings: Homo sapiens, SK-OV-3, SKOV-3, ovarian cancer, 72 hours
Description: as §1, §2

SR = test: Cancer cell proliferation GI50 (CCK-8); type: cell-based; settings: Homo sapiens, immunoblastic large cell lymphoma, 72 hours
Description: as §1, §2

T47D = test: Cancer cell proliferation GI50 (CCK-8); type: cell-based; settings: Homo sapiens, breast cancer, 72 hours
Description: as §1, §2

THP-1 = test: Cancer cell proliferation GI50 (CCK-8); type: cell-based; settings: Homo sapiens, THP-1, acute myeloid leukemia, 72 hours
Description: as §1, §2

THP/DEC-2 = test: Cancer cell proliferation GI50 (CCK-8); type: cell-based; settings: THP/DEC-2, acute myeloid leukemia, 72 hours
Description: as §1, §2

TOM-1 = test: Cancer cell proliferation GI50 (CCK-8); type: cell-based; settings: TOM-1, B cell acute lymphocytic leukemia, 72 hours
Description: as §1, §2

SMILES: CCc1cnc(NC(=O)[C@@H](C)c2cccc(-c3cnc(NC(=O)/C=C/CN(C)C)c(C#N)c3)c2)s1 [Compound 121, (S,E)-N-(3-cyano-5-(3-(1-((5-ethylthiazol-2-yl)amino)-1-oxopropan-2-yl)phenyl)pyridin-2-yl)-4-(dimethylamino)but-2-enamide]
- IC50 [1]: 4.2 nM
- pIC50 (MDA-MB-468 cells; Homo sapiens, MDA-MB-468, 72 h): ≥ 7.85
- pIC50 (MDA-MB-468 cells; 72 hours): 7.85
- GI50 (A549): 8.6 nM
- GI50 (BDCM): 2.68 nM
- GI50 (BxPC-3): 6.7 nM
- GI50 (DAUDI): 9.15 nM
- GI50 (DU145): 11.5 nM
- GI50 (JURKAT): 17.5 nM
- GI50 (KASUMI-2): 6.26 nM
- GI50 (KG-1): 29 nM
- GI50 (LNCaP): 8 nM
- GI50 (MEG-01): 4 nM
- GI50 (MOLM/AZA-1): 13.2 nM
- GI50 (MOLM/DEC-5): 14.9 nM
- GI50 (MOLT4): 4.51 nM
- GI50 (MV-4-11): 11.8 nM
- GI50 (NALM-20): 18.6 nM
- GI50 (OCI-AML2): 7.74 nM
- GI50 (OVCAR-3): 4.8 nM
- GI50 (RCH-ACV): 4.1 nM
- GI50 (RPMI-8226): 16.4 nM
- GI50 (SKOV-3): 9.6 nM
- GI50 (SR): 5.83 nM
- GI50 (T47D): 19.3 nM
- GI50 (THP-1): 1.95 nM
- GI50 (THP/DEC-2): 3.6 nM
- GI50 (TOM-1): 4.36 nM
